The source of these data is ChEMBL document CHEMBL2163329, “Tuberculosis: the drug development pipeline at a glance” (Eur J Med Chem, 2012).

The term MIC denotes the lowest concentration found to suppress growth. High values mean a less susceptible organism, low ones a more susceptible organism. Usually MIC90 stands for an inhibitory concentration at the 90% level, which refers to growth in some studies and to a panel of isolates in others. Higher therefore signals lower susceptibility.

Molecules are shown by their SMILES. ≈ marks a conversion by molar mass, not a printed value.

Holding throughout (format): functional
Experiment [1] has as its system Mycobacterium tuberculosis. Nature of the experiment: Antimycobacterial activity against INH-resistant Mycobacterium tuberculosis.
Experiment [2] deals with Mycobacterium tuberculosis. Nature of the experiment: Antimycobacterial activity against RIF-resistant Mycobacterium tuberculosis.
Experiment [3] deals with Mycobacterium tuberculosis. In words: Antimycobacterial activity against EMB-resistant Mycobacterium tuberculosis.
Experiment [4] has as its system Mycobacterium tuberculosis. Nature of the experiment: Antimycobacterial activity against drug-resistant Mycobacterium tuberculosis.
For experiment [5], the system named is Mycobacterium tuberculosis. In words: Antimycobacterial activity against quinolone-resistant, multidrug-resistant Mycobacterium tuberculosis.

As for `CC(C)=CCC/C(C)=C/CNCCNC1C2CC3CC(C2)CC1C3` (stereo not drawn) [SQ109], the minimum inhibitory concentration (MIC) in experiment [1] was 1.4 µM (≈ 0.463 µg/mL); in experiment [2] it was 0.7 µM (≈ 0.231 µg/mL); in experiment [3], 0.9 µM (≈ 0.298 µg/mL).

The compound `C[C@]1(COc2ccc(N3CCC(Oc4ccc(OC(F)(F)F)cc4)CC3)cc2)Cn2cc([N+](=O)[O-])nc2O1` came in with an MIC in experiment [4] of 0.006 mg/L (≈ 0.0112 µM).

Take `COc1nc2ccc(Br)cc2cc1[C@@H](c1ccccc1)[C@@](O)(CCN(C)C)c1cccc2ccccc12` [BEDAQUILINE]: the MIC in experiment [4] worked out at 0.003 mg/L (≈ 0.0054 µM).

Turning to `CC(=O)NC[C@H]1CN(c2ccc(N3CCSCC3)c(F)c2)C(=O)O1` [SUTEZOLID], inhibition of growth in experiment [4] (MIC) required 0.03 mg/L (≈ 0.0849 µM).

As to `COc1c(N2CC3(CC3)[C@](C)(N)C2)c(F)cc2c(=O)c(C(=O)O)cn([C@@H]3C[C@@H]3F)c12`, the MIC90 in experiment [5] is 0.5 mg/L (≈ 1.19 µM).

With `O=[N+]([O-])c1cn2c(n1)OC[C@@H](OCc1ccc(OC(F)(F)F)cc1)C2` [PRETOMANID], in experiment [4], 0.015 mg/L (≈ 0.0418 µM) was the least that counted as inhibitory (MIC).
